Assays:
Type in all cases: cell-based, human
Conditions in all cases: HaCaT cells, IFN-γ 10 ng/mL; 1, 10, and 100 ppm; 24 hours; GAPDH as standard
[1] = test system: CCL17; assay: Marker gene expression in IFN-γ atopic dermatitis cell model (HaCaT), real-time PCR: CCL17
Description: (§1) To verify the effect of the Cyclo(Gly-Pro) of alleviating atopic dermatitis, an in vitro efficacy evaluation was conducted.
(§2) First, human keratinocytes, HaCaT cells, were purchased from the American Type Culture Collection (ATCC; Manassas, VA, USA) and cultured in DMEM (HyClone, Logan, UT, USA) supplemented with 10 % FBS (HyClone) and 1 % antibiotic-antimycotic solution (Welgene, Daegu, Korea). The cells were maintained at 37 °C in a 5 % CO2 incubator. After isolating the cells using trypsinization, 4 x 10^5 cells were added to each well of a 6-well plate. After 1 day of cell attachment, the culture was replaced with a serum-free medium and treated with IFN-γ (Sigma Aldrich, St. St. Louis, MO, USA) at a concentration of 10 ng/mL to induce an environment similar to atopic dermatitis. As a positive control group, 1 µM dexamethasone (Sigma Aldrich) was used. As experimental groups, the cells were treated with Cyclo(Gly-Pro) (Biosynth Ltd, Berkshire, UK) at concentrations of 1, 10, and 100 ppm. […]
(§3) The cDNA amplification was performed by 40 cycles of amplification, wherein each cycle has the following conditions: 50 °C for 2 minutes, 95 °C for 10 minutes, 40 cycles of 95°C for 10 seconds, and 60°C for 1 minute. GAPDH was used as an ISTD material, and the mRNA expression levels were expressed as relative values compared to the negative control group. […]

[2] = test system: CCL22; assay: Marker gene expression in IFN-γ atopic dermatitis cell model (HaCaT), real-time PCR: CCL22
Description: as §1, §2, §3

[3] = test system: IL-13; assay: Marker gene expression in IFN-γ atopic dermatitis cell model (HaCaT), real-time PCR: IL-13
Description: as §1, §2, §3

[4] = test system: IL-22; assay: Marker gene expression in IFN-γ atopic dermatitis cell model (HaCaT), real-time PCR: IL-22
Description: as §1, §2, §3

[5] = test system: sIL-2R; assay: Marker gene expression in IFN-γ atopic dermatitis cell model (HaCaT), real-time PCR: sIL-2R
Description: as §1, §2, §3

[6] = test system: IL-31; assay: Marker gene expression in IFN-γ atopic dermatitis cell model (HaCaT), real-time PCR: IL-31
Description: as §1, §2, §3

[7] = test system: filaggrin (FLG); assay: Marker gene expression in IFN-γ atopic dermatitis cell model (HaCaT), real-time PCR: filaggrin
Description: as §1, §2, §3

Q: `O=C1NCC(=O)N2CCCC12` (stereo not shown) [Cyclo(Gly-Pro), hexahydropyrrolo[1,2-a]pyrazine-1,4-dione] was tested. Which “relative expression levels of CCL17” value [1] did it give?
A: Its value is “decreased”.

Q: And the “relative expression levels of CCL22” value [2]?
A: The value was “decreased”.

Q: And the “relative expression levels of IL-13” value [3]?
A: Its value is “decreased”.

Q: What about the “relative expression levels of IL-22” value [4] of the same compound?
A: Its value is “decreased”.

Q: And the “relative expression levels of sIL-2R” value [5]?
A: Its value is “decreased”.

Q: And the “relative expression levels of IL-31” value [6]?
A: The value was “decreased”.

Q: What about the “relative expression levels of filaggrin (FLG)” value [7] of the same compound?
A: The value was “increased”.

Reference: patent EP4656179A1, “COMPOSITION CONTAINING STREPTOCOCCUS SP. STRAIN FOR PREVENTION, ALLEVIATION, OR TREATMENT OF SKIN DISEASES” (Cosmax, Inc., priority 2023, dated 2024)
